Results reported in patent US11180504B2 (ORCHID PHARMA LTD., priority 2016, dated 2021).
In brackets after ≈: the same amount, converted by molar mass. Where two headings read alike, the source gives them in different places.

Legend:
[1] = tested on: methicillin-sensitive Staphylococcus aureus; experiment: MIC by broth micro-dilution (CLSI), methicillin-sensitive S. aureus; type: cell-based; conditions: MSSA S. aureus ATCC29213
[2] = tested on: carbapenem sensitive Escherichia coli; experiment: MIC by broth micro-dilution (CLSI), carbapenem sensitive E. coli; type: cell-based
[3] = tested on: extended spectrum β lactamase (ESBL) SHV18 producing Klebsiella pneumoniae; experiment: MIC by broth micro-dilution (CLSI), ESBL SHV18 producing K. pneumoniae; type: cell-based; conditions: ESBL +ve (SHV-18) K. pneumoniae ATCC700603
[4] = tested on: carbapenemase producing K. pneumoniae; experiment: MIC by broth micro-dilution (CLSI), carbapenemase producing K. pneumoniae; type: cell-based, Klebsiella pneumoniae
[5] = tested on: carbapenem sensitive Pseudomonas aeruginosa; experiment: MIC by broth micro-dilution (CLSI), carbapenem sensitive P. aeruginosa; type: cell-based
[6] = Staphylococcus aureus, ATCC 29213 / MSSA, read-out: MIC
[7] = Escherichia coli, ATCC25922, ESBL −ve E. coli ATCC25922, read-out: MIC
[8] = Klebsiella pneumoniae, ATCC700603, 22 h, read-out: MIC
[9] = Klebsiella pneumoniae, ATCCBAA1705, KPC-2 K. pneumoniae ATCC BAA-1705, read-out: MIC
[10] = Pseudomonas aeruginosa, ATCC27853, Meropenem susceptible P. aeruginosa ATCC27853, read-out: MIC

MIC [1, 6] [µg/mL]	MIC [2, 7] [µg/mL]	MIC [3, 8] [µg/mL]	MIC [4, 9] [µg/mL]	MIC [5, 10] [µg/mL]	MIC [1] [µg/mL]	MIC ([2]; ESBL −ve E. coli ATCC25922) [µg/mL]	MIC [3] [µg/mL]	MIC ([4]; KPC-2 K. pneumoniae ATCC BAA-1705) [µg/mL]	MIC ([5]; Meropenem susceptible P. aeruginosa ATCC27853) [µg/mL]	Compound
0.25 (≈ 0.502 µM)	1 (≈ 2.01 µM)	1 (≈ 2.01 µM)	2 to 4 (≈ 4.02 to 8.04 µM)	32 to 64 (≈ 64.3 to 129 µM)						C[C@@H](NC(=O)C(F)F)[C@H]1C(=O)N2C(C(=O)O)=C(S[C@@H]3CN[C@H](CNS(N)(=O)=O)C3)[C@H](C)[C@H]12 [Example 38]
2 (≈ 3.7 µM)	1 (≈ 1.85 µM)	2 (≈ 3.7 µM)	4 (≈ 7.4 µM)	16 (≈ 29.6 µM)						C[C@@H](NC(=O)C(F)F)[C@H]1C(=O)N2C(C(=O)O)=C(S[C@@H]3CN[C@H](C(=O)N4CC[C@H](NCC#N)C4)C3)[C@H](C)[C@H]12 [Example 175]
4 (≈ 6.82 µM)	2 (≈ 3.41 µM)	16 (≈ 27.3 µM)	8 (≈ 13.6 µM)	16 (≈ 27.3 µM)						C[C@@H](NC(=O)C(F)F)[C@H]1C(=O)N2C(C(=O)O)=C(S[C@@H]3CN[C@H](C(=O)N(C)CCC(=O)N4CC[C@H](N)C4)C3)[C@H](C)[C@H]12 [Example 173]
2 (≈ 3.74 µM)	1 (≈ 1.87 µM)	1 (≈ 1.87 µM)	8 (≈ 15 µM)	128 (≈ 239 µM)						C[C@@H](NC(=O)C(F)F)[C@H]1C(=O)N2C(C(=O)O)=C(S[C@@H]3CN[C@H](C(=O)N4CC[S+]([O-])CC4)C3)[C@H](C)[C@H]12 [Example 42]
					2 (≈ 3.96 µM)	1 (≈ 1.98 µM)	4 (≈ 7.93 µM)	4 (≈ 7.93 µM)	64 (≈ 127 µM)	C[C@@H](NC(=O)C(F)F)[C@H]1C(=O)N2C(C(=O)O)=C(S[C@@H]3CN[C@H](C(=O)N4CC[C@@H](F)C4)C3)[C@H](C)[C@H]12 [Example 210]
2 (≈ 3.76 µM)	2 (≈ 3.76 µM)	8 (≈ 15 µM)	16 (≈ 30.1 µM)	32 (≈ 60.2 µM)						C[C@@H](NC(=O)C(F)F)[C@H]1C(=O)N2C(C(=O)O)=C(SC3CN[C@H](C(=O)N4CCO[C@@H](CN)C4)C3)[C@H](C)[C@H]12 (some centres unmarked) [Example 127]
4 (≈ 7.19 µM)	1 (≈ 1.8 µM)	8 (≈ 14.4 µM)	8 (≈ 14.4 µM)	128 (≈ 230 µM)						C[C@@H](NS(=O)(=O)C(F)(F)F)[C@H]1C(=O)N2C(C(=O)O)=C(S[C@@H]3CN[C@H](C(=O)N4CC[C@@H](O)C4)C3)[C@H](C)[C@H]12 [Example 34]
4 (≈ 7.71 µM)	16 (≈ 30.9 µM)	> 128	32 (≈ 61.7 µM)	128 (≈ 247 µM)						C[C@@H](NC(=O)C1(C(F)(F)F)CC1)[C@H]1C(=O)N2C(C(=O)O)=C(S[C@@H]3CN[C@H](C(=O)N(C)C)C3)[C@H](C)[C@H]12 [Example 17]
4 (≈ 8.02 µM)	32 (≈ 64.2 µM)	> 128	> 128	> 128						CC(C)C[C@@H](F)C(=O)N[C@H](C)[C@H]1C(=O)N2C(C(=O)O)=C(S[C@@H]3CN[C@H](C(=O)N(C)C)C3)[C@H](C)[C@H]12 [Example 79]
32 (≈ 65.4 µM)	4 (≈ 8.17 µM)	16 (≈ 32.7 µM)	128 (≈ 261 µM)	> 128						C[C@@H](NS(=O)(=O)N(C)C)[C@H]1C(=O)N2C(C(=O)O)=C(S[C@@H]3CN[C@H](C(=O)N(C)C)C3)[C@H](C)[C@H]12 [Example 57]
4 (≈ 7.55 µM)	1 (≈ 1.89 µM)	4 (≈ 7.55 µM)	4 (≈ 7.55 µM)	16 (≈ 30.2 µM)						C[C@@H](NC(=O)C(F)F)[C@H]1C(=O)N2C(C(=O)O)=C(S[C@@H]3CN[C@H](C(=O)N4CC[C@H](N(C)C)C4)C3)[C@H](C)[C@H]12 [Example 107]
1 (≈ 2.17 µM)	0.5 (≈ 1.09 µM)	1 (≈ 2.17 µM)	1 (≈ 2.17 µM)	32 (≈ 69.5 µM)						C[C@@H](NC(=O)C(F)F)[C@H]1C(=O)N2C(C(=O)O)=C(S[C@@H]3CN[C@H](C(=O)N(C)C)C3)[C@H](C)[C@H]12 [Example 32]
2 (≈ 3.88 µM)	1 (≈ 1.94 µM)	4 (≈ 7.76 µM)	4 (≈ 7.76 µM)	4 (≈ 7.76 µM)						C[C@@H](NC(=O)C(F)F)[C@H]1C(=O)N2C(C(=O)O)=C(S[C@@H]3CN[C@H](C(=O)N4CC[C@@H](CN)C4)C3)[C@H](C)[C@H]12 [Example 219]
2 (≈ 4.4 µM)	2 (≈ 4.4 µM)	4 (≈ 8.8 µM)	4 to 16 (≈ 8.8 to 35.2 µM)	> 128						COCC(=O)N[C@H](C)[C@H]1C(=O)N2C(C(=O)O)=C(S[C@@H]3CN[C@H](C(=O)N(C)C)C3)[C@H](C)[C@H]12 [Example 21]
8 (≈ 15.3 µM)	4 (≈ 7.64 µM)	4 (≈ 7.64 µM)	16 (≈ 30.6 µM)	4 (≈ 7.64 µM)						CCOC(=O)C(=O)N[C@H](C)[C@H]1C(=O)N2C(C(=O)O)=C(S[C@@H]3CN[C@H](C(=O)N4CC[C@H](N)C4)C3)[C@H](C)[C@H]12 [Example 109]
2 (≈ 3.88 µM)	1 (≈ 1.94 µM)	4 (≈ 7.76 µM)	4 (≈ 7.76 µM)	8 (≈ 15.5 µM)						C[C@@H]1CN(C(=O)[C@@H]2C[C@H](SC3=C(C(=O)O)N4C(=O)[C@H]([C@@H](C)NC(=O)C(F)F)[C@H]4[C@H]3C)CN2)CCN1 [Example 135]
